Read-outs that look alike come from different tables or passages of the source.
Tests used:
[1] = system: amsacrine-resistant Jurkat human leukaemia cell line (JLA); test: Cytotoxicity in amsacrine-resistant Jurkat cells (JLA); type: cell-based; settings: for Rf(JLA/JLC): IC50 in JLA divided by IC50 in JLC; for IC50: JLA cells (amsacrine-resistant)
Method: (§1) The cytotoxicity of the compounds described herein was also measured using the Jurkat human leukaemia cell line (JLC) and also the amsacrine-resistant Jurkat human leukaemia cell line (JLA) and the doxorubicin-resistant Jurkat human leukaemia cell line (JLD). The cytotoxicity, as measured by the IC50 (concentration required to give 50% cell kill) in the JLA or JLD cell line divided by the cytotoxicity in the JLC cell line gives an indication of the degree to which a compound may be affected by atypical drug resistance and is termed the resistance factor (Rf) of the compound. The method used has been described previously (Finlay et al, Eur J. Cancer 32A, 708-714, 1996). Compounds were active in the range 1 nM to 5 μM.

[2] = system: COR-L23/R human non-small cell lung carcinoma cell line which overexpresses multidrug resistance associated protein (MRP); test: Cytotoxicity in drug resistant COR-L23/R cells (SRB assay); type: cell-based; settings: for Rf (resistance factor): IC50 in L23/R divided by IC50 in L23/P; for IC50: L23/R cells (MRP overexpressing), 5-6 days incubation, SRB
Method: (§2) The cytotoxicity of the compounds described herein was also measured using the COR-L23 parental (COR-L23/P) human non-small cell lung carcinoma cell line and also the drug resistant human non-small cell lung carcinoma cell line COR-L23/R which overexpresses multidrug resistance associated protein (MRP).
(§3) L23/P and L23/R cells were pipetted into 96-well tissue culture plates and then allowed to incubate at 37° C. for 4 h. A range of concentrations from 0.01 nM to 5 μM of compounds of formula (I) or the standards TAS-103, Doxorubicin and Topotecan were then added. The plates were incubated for 5-6 days before proliferation was assessed using the sulphurhodamine B (SRB) assay as described by Skehan et al, J Natl Cancer Inst 1990, 82, pp1107-1112.

[3] = system: COR-L23 parental (COR-L23/P) human non-small cell lung carcinoma cell line; test: Cytotoxicity in COR-L23 parental cells (SRB assay); type: cell-based
Method: The cytotoxicity of the compounds described herein was also measured using the COR-L23 parental (COR-L23/P) human non-small cell lung carcinoma cell line and also the drug resistant human non-small cell lung carcinoma cell line COR-L23/R which overexpresses multidrug resistance associated protein (MRP). The cytotoxicity, as measured by the IC50 (concentration required to give 50% cell kill) in the L23/R cell line divided by the cytotoxicity in the L23/P cell line gives an indication of the degree to which a compound may be affected by MRP-dependant MDR and is termed the resistance factor (Rf) of the compound.
as §3

[4] = system: H69 parental (H69/P) human small cell lung carcinoma cell line; test: Cytotoxicity in H69 parental cells (AlamarBlue); type: cell-based; settings: 5-6 days incubation, concentration required to give 50% cell kill
Method: (§4) The cytotoxicity of compounds of formula (I) was measured using the H69 parental (H69/P) human small cell lung carcinoma cell line and the drug resistant human small cell lung carcinoma cell line H69/LX4 which overexpresses P-glycoprotein (Pgp).
(§5) H69/P and H69/LX4 cells were pipetted into 96-well tissue culture plates and then allowed to incubate at 37° C. for 4 h. A range of concentrations from 0.01 nM to 5 μM of compounds of formula (I) or the standards TAS-103, Doxorubicin and Topotecan were then added. The plates were incubated for 5-6 days before adding AlamarBlue to each well and returning the plates to the incubator for 5-8 h to allow colour development. The cell numbers in the plates at the end of this period were directly proportional to the absorbance measured at a wavelength of 570 nm (reference wavelength 600 nm).

[5] = system: Jurkat human leukaemia cell line (JLC); test: Cytotoxicity in Jurkat cells (JLC); type: cell-based
Method: as §1

[6] = system: doxorubicin-resistant Jurkat human leukaemia cell line (JLD); test: Cytotoxicity in doxorubicin-resistant Jurkat cells (JLD); type: cell-based; settings: for Rf(JLD/JLC): IC50 in JLD divided by IC50 in JLC; for IC50: JLD cells (doxorubicin-resistant)
Method: as §1

[7] = system: H69/LX4 human small cell lung carcinoma cell line which overexpresses P-glycoprotein (Pgp); test: Cytotoxicity in drug resistant H69/LX4 cells (AlamarBlue); settings: for Rf (resistance factor): IC50 in H69/LX4 divided by IC50 in H69/P
Method: as §4, §5

topoisomerase I = molecular target: T1, topoisomerase I (Homo sapiens, UniProt P11387); test: Stabilization of cleavable complexes with topoisomerase I; type: biochemical; settings: range where an increase in cleavable complexes was observed relative to controls
T1 sequence (P11387 1-765): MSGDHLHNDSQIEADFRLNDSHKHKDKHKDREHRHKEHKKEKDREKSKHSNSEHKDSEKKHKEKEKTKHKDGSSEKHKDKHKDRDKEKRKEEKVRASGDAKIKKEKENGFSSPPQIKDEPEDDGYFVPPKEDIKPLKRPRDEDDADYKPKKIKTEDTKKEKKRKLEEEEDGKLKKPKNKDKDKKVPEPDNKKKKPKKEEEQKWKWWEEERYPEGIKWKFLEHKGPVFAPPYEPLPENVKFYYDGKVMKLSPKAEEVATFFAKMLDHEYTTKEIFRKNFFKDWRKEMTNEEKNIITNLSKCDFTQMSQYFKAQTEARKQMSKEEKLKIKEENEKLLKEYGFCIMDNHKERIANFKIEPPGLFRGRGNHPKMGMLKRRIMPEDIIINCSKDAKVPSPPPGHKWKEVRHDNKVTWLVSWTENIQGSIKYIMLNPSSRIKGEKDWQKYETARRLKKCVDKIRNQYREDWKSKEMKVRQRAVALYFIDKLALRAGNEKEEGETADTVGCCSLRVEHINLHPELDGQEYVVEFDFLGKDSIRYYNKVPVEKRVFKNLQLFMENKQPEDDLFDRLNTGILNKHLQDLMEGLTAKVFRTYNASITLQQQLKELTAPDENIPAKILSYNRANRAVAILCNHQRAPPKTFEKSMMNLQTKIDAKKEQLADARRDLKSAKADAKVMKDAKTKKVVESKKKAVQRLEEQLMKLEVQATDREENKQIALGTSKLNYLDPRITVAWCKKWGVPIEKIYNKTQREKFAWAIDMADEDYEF
Description: (§6) Compounds were also studied for their ability to stabilize cleavable complexes in the presence of either topoisomerase I or II essentially as described previously (Finlay et al, Eur. J. Cancer 32A, 708-714, 1996). Presence of cleavable complexes was indicated by an increase in the number and intensity of bands observed after electrophoresis and autoradiography. The results are expressed as the effective concentration range where an increase in cleavable complexes was observed relative to controls in the absence of drug.

topoisomerase II = test: Stabilization of cleavable complexes with topoisomerase II; type: biochemical; settings: range where an increase in cleavable complexes was observed relative to controls
Description: as §6

[8] = Cytotoxicity in drug resistant COR-L23/R cells (SRB assay); type: cell-based, human; settings: Homo sapiens, COR-L23/R; L23/R cells (MRP overexpressing), 5-6 days incubation, SRB
Method: as §2, §3

[9] = Homo sapiens, COR-L23, 5-6 days incubation
[10] = Homo sapiens, read-out: H69/LX4 IC50

SMILES | Rf(JLA/JLC) [1] | IC50 [1] | Rf (resistance factor) [2] | IC50 [2] | IC50 ([3]; 5-6 days incubation) | IC50 [4] | IC50 [5] | Rf(JLD/JLC) [6] | IC50 [6] | IC50 [7] | Rf (resistance factor) [7] | Effective concentration range, Topoisomerase I (topoisomerase I) | Effective concentration range, Topoisomerase II (topoisomerase II) | IC50 ([1]; Homo sapiens, Jurkat) | IC50 [8] | IC50 [3, 9] | IC50 ([5]; Homo sapiens, Jurkat) | IC50 ([6]; Homo sapiens, Jurkat) | IC50 [7, 10] | IC50 ([7]; read-out: H69/LX4 IC50, H69/LX4 cells (Pgp overexpressing), 5-6 days incubation)
CN(C)CCNC(=O)c1cccc2nc3ccc4cnccc4c3nc12 [Compound 2, Pyrido[4,3-α]phenazine-11-carboxylic acid (2-dimethylamino-ethyl)-amide] | 3 | 84 nM | 2.5 | 56 nM | 22 nM | 88 nM | 28 nM | 2.8 | 78 nM | 56 nM | 0.6 | – | – | – | – | – | – | – | – | –
CN(C)CCNC(=O)c1cccc2nc3ccc4ncccc4c3nc12 [Compound 3, Pyrido[3,2-α]phenazine-11-carboxylic acid (2-dimethylamino-ethyl)-amide] | 2.8 | 235 nM | 1.5 | 71 nM | 48 nM | 123 nM | 74 nM | 0.7 | 52 nM | 133 nM | 1.1 | – | – | – | – | – | – | – | – | –
COc1nccc2c1ccc1nc3cccc(C(=O)NCCN(C)C)c3nc12 [Compound 5, 4-Methoxypyrido[4,3-α]phenazine-11-carboxylic acid (2-dimethylamino-ethyl)-amide] | 0.7 | 12 nM | 1.1 | 16 nM | 14 nM | 21 nM | 17 nM | 0.7 | 12 nM | 26 nM | 1.3 | 0.1 to 3.0 µM | 0.1 to 3.0 µM | – | – | – | – | – | – | –
COc1nccc2c1ccc1nc3cccc(C(=O)N[C@H](C)CN(C)C)c3nc12 [Compound 6, 4-Methoxypyrido[4,3-α]phenazine-11-carboxylic acid (2-dimethylamino-1-(R)-methyl-ethyl)-amide] | 0.7 | 7 nM | 1.3 | 15 nM | 12 nM | 24 nM | 10 nM | 0.9 | 9 nM | 29 nM | 1.2 | 0.1 to 3.0 µM | 0.1 to 3.0 µM | – | – | – | – | – | – | –
COc1nccc2c1ccc1nc3cccc(C(=O)N[C@H](CO)CN(C)C)c3nc12 [Compound 9, 4-Methoxypyrido[4,3-α]phenazine-11-carboxylic acid (2-dimethylamino-1-(S)-hydroxymethyl-ethyl)-amide] | – | – | 1.5 | 6 nM | 4 nM | 24 nM | – | – | – | 28 nM | 1.2 | – | – | – | – | – | – | – | – | –
CN(C)CCNC(=O)c1cccc2nc3ccc4cnn(C)c4c3nc12 [Compound 13, 1-Methyl-1H-pyrazolo[3,4-α]phenazine-10-carboxylic acid (2-dimethylamino-ethyl)-amide] | 1 | 44 nM | – | – | – | 109 nM | 44 nM | 1.1 | 48 nM | 97 nM | 0.9 | – | – | – | – | – | – | – | – | –
COc1cccc2c1C(=O)c1c(O)c3c(c(O)c1C2=O)C[C@@](O)(C(=O)CO)C[C@@H]3O[C@H]1C[C@H](N)[C@H](O)[C@H](C)O1 [Doxorubicin, reference compound] | 3.7 | – | 16.1 | – | – | – | – | – | – | – | 135 | – | – | 25.9 nM | 327 nM | 20.3 nM | 7 nM | 109 nM | 3700 nM | –
CN(C)CCNc1nc2cc(O)ccc2c2c1C(=O)c1ccccc1-2 [TAS-103, reference compound] | 55.9 | 302 nM | 1.3 | 22 nM | 16.3 nM | 21 nM | 5.4 nM | 71.1 | 384 nM | – | 1.1 | 0.3 to 10.0 µM | 0.3 to 10.0 µM | – | – | – | – | – | – | 22 nM
CC[C@@]1(O)C(=O)OCc2c1cc1n(c2=O)Cc2cc3c(CN(C)C)c(O)ccc3nc2-1 [Topotecan, reference compound] | – | – | 1.5 | – | – | – | – | – | – | – | 3.9 | – | – | – | 20.8 nM | 13.6 nM | – | – | 61.5 nM | –
